Laboratory results taken from article doi:10.1101/2020.01.23.916502v1 (biorxiv, 2020).

Tests used:
Experiment in all cases: NanoBRET tracer displacement in live HEK293T cells
Format in all cases: cell-based
[1] = molecular target: PIK3CA (Homo sapiens, UniProt P42336)
[2] = molecular target: DDR1 (Homo sapiens, UniProt Q08345)
[3] = molecular target: JAK1 (Homo sapiens, UniProt P23458)
[4] = molecular target: PNCK (Homo sapiens, UniProt Q6P2M8)
[5] = molecular target: MAPK9 (Homo sapiens, UniProt P45984)
Chain of MAPK9 (P45984 whole entry): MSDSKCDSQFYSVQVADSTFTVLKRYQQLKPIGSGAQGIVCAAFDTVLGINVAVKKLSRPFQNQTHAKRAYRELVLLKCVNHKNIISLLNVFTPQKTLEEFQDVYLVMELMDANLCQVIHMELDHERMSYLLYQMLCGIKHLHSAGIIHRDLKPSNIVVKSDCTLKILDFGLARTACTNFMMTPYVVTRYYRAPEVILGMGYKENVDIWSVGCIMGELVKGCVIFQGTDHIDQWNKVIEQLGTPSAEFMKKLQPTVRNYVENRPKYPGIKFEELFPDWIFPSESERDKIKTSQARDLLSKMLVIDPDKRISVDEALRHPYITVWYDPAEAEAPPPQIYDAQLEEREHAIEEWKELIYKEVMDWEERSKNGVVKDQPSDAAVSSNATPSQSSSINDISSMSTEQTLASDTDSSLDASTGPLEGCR

Measured: IC50

Chain of DDR1 (Q08345 19-913): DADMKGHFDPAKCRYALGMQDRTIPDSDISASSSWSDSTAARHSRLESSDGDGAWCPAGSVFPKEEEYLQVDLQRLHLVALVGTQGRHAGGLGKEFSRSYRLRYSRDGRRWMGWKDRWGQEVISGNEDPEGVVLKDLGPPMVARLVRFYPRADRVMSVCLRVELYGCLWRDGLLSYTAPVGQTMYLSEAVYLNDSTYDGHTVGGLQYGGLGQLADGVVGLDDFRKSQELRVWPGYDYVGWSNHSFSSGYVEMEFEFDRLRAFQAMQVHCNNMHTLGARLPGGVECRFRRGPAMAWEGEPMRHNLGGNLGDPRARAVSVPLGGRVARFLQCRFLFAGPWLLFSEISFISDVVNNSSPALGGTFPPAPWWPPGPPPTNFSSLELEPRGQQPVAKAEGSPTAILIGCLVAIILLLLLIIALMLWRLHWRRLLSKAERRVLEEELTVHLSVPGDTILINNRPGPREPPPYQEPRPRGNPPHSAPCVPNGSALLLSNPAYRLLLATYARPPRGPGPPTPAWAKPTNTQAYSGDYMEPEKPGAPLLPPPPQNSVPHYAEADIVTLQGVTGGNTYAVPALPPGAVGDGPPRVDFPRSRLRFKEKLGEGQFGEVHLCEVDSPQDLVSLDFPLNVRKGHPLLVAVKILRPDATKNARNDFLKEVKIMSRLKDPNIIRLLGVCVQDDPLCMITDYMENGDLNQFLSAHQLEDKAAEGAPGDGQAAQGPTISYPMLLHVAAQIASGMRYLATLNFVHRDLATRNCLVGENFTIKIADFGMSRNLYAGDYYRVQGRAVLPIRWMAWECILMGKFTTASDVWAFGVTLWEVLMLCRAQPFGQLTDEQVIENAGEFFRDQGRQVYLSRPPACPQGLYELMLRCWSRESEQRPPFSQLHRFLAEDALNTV
Chain of PIK3CA (P42336 whole entry): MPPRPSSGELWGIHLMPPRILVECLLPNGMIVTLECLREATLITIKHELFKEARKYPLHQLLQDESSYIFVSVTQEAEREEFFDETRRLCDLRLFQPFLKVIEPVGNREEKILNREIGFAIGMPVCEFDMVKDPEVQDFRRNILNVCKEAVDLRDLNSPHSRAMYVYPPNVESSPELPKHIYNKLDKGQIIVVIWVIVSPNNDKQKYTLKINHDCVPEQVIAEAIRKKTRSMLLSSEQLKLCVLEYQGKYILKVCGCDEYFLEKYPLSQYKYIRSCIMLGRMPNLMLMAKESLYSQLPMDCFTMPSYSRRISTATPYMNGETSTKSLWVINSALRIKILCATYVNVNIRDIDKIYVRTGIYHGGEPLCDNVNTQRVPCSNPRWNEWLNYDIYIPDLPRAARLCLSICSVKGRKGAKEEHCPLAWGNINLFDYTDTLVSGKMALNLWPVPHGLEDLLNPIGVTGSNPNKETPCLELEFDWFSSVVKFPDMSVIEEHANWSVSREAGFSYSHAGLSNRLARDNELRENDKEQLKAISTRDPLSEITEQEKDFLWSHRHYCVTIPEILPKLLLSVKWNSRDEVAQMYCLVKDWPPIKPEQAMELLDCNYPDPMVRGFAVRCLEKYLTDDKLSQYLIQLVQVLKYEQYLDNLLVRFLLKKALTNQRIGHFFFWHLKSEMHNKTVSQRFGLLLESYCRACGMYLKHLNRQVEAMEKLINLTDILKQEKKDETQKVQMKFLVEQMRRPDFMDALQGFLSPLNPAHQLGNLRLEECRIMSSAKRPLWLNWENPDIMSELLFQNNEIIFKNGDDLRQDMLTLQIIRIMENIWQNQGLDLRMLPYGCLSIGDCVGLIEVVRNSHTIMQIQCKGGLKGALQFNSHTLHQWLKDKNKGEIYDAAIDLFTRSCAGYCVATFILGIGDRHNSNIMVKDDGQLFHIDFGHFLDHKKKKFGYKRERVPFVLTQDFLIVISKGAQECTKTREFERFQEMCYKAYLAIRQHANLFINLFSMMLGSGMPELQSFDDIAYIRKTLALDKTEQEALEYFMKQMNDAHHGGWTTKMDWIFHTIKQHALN
Chain of JAK1 (P23458 whole entry): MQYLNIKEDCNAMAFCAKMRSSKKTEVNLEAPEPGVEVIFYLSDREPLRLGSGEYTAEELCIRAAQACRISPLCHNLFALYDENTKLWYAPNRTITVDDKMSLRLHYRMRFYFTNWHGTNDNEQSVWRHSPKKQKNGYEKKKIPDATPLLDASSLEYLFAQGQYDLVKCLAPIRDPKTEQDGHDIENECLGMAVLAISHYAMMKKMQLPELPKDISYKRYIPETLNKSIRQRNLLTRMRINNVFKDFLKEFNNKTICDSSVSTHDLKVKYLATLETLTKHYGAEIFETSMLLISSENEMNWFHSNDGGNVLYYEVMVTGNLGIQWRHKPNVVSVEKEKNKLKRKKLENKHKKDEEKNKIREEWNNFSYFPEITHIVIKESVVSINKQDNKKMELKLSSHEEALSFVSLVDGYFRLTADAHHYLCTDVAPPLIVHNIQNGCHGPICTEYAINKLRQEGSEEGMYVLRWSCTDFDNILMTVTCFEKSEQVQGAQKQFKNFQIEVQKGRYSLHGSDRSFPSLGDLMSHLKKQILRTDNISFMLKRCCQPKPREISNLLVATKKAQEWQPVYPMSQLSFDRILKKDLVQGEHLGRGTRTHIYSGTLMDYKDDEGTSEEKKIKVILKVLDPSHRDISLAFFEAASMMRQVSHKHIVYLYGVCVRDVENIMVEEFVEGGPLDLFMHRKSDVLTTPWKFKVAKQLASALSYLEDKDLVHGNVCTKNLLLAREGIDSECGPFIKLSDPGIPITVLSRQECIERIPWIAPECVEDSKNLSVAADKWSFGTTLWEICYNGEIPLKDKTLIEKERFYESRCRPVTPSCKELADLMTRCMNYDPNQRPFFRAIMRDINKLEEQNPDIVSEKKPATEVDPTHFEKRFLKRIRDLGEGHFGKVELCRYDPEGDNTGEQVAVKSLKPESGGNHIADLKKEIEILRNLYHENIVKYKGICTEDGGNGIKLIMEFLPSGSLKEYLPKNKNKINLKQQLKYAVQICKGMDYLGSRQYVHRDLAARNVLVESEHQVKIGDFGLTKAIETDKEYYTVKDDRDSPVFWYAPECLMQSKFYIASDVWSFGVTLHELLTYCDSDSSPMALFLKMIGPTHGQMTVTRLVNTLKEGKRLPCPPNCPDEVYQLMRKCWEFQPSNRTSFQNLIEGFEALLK
Chain of PNCK (Q6P2M8 whole entry): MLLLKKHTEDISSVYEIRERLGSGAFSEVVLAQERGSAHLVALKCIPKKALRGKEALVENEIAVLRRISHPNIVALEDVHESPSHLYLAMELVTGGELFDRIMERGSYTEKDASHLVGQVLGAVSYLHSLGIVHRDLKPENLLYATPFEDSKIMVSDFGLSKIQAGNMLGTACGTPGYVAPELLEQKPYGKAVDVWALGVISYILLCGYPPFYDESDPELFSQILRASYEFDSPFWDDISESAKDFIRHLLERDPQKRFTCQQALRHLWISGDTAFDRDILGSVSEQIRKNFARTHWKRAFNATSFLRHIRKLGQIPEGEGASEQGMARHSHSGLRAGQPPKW

Cc1cnc(-c2cc(Cl)ccc2F)cc1-n1c(=O)n(CC(N)=O)c2ccccc21 [compound 15, THAI11]
> 20 µM: all assays above

Cc1ccc2c(c1)n(CC(N)=O)c(=O)n2-c1cc(-c2cc(Cl)ccc2F)ncc1C [compound 16, THAI14]
> 20 µM: all assays above
